Source: article PMC4749844, “Investigation of Calcium Channel Blockers as Antiprotozoal Agents and Their Interference in the Metabolism of Leishmania (L.) infantum” (Evidence-based Complementary and Alternative Medicine : eCAM, 2016)
Read-outs that look alike come from different tables or passages of the source.

Legend:
[1] = test system: L. (L.) infantum promastigotes; test: Mitochondrial membrane potential, MitoTracker Red; type: cell-based, Leishmania (L.) infantum; conditions: for reduction of MitoTracker Red fluorescence levels relative to untreated parasites: 20 μM, 60 minutes, p < 0.05
Description: L. […] Then MitoTracker® Red CM-H2XROS (500 nM) was added and the incubation was continued for 40 minutes in the dark. […] Nitazoxanide (60 μg/mL) was used as a positive control and untreated promastigotes were used as negative control.

[2] = test system: L. (L.) infantum promastigotes; test: Reactive oxygen species (ROS), H2DCF-DA; type: cell-based, Leishmania (L.) infantum; conditions: for regulation of ROS content compared to untreated parasites: amlodipine, fendiline 20 μM, 60 minutes
Description: L. (L.) infantum promastigotes (2 × 10^6 cells/well) were washed in HBSS medium and incubated with amlodipine or fendiline (20 μM) for 60 minutes at 24°C. To these cells 2′,7′-dichlorodihydrofluorescein diacetate (H2DCf-DA) was added (5 μM) and incubation was prolonged for 15 minutes. […] Nitazoxanide (60 μg/mL) was used as positive control and untreated promastigotes were used as negative control.

[3] = test system: L. (L.) amazonensis promastigotes; test: Antileishmanial activity against promastigotes, MTT assay; type: cell-based, Leishmania (L.) amazonensis; conditions: 24 hours at 24°C, highest concentration 100 μM; for IC50: Leishmania amazonensis, read-out: IC50 ± SD, L. (L.) amazonensis promastigotes
Description: (§1) Promastigotes of L. (L.) amazonensis (WHO/BR/00/LT0016), L. (V.) braziliensis (MHO/BR/75/M2903), and L. (L.) infantum (MHOM/BR/1972/LD) [synonymous with L. (L.) chagasi] were maintained in M199 medium supplemented with 10% calf serum and 0.25% hemin at 24°C. L. (L.) infantum amastigotes were obtained from the spleen of infected hamster by differential centrifugation at the 60–70th days after infection. Macrophages were collected from the peritoneal cavity of BALB/c mice by washing with RPMI-1640 medium supplemented with 10% fetal calf serum and were maintained at 37°C in a 5% CO2 humidified incubator. Trypanosoma cruzi trypomastigotes (Y strain) were maintained in LLC-MK2 (ATCC CCL 7) cells using RPMI-1640 medium supplemented with 2% calf serum at 37°C in a 5% CO2 humidified incubator.
(§2) To determine the 50% inhibitory concentration (IC50) against Leishmania promastigotes, the drugs were dissolved in DMSO and diluted with M199 medium in 96-well microplates, with 100 μM as the highest concentration. Each drug was tested twice at eight concentrations prepared in twofold dilutions. Promastigotes were counted in a Neubauer hemocytometer and seeded at 1 × 10^6 parasites/well with a final volume of 150 μL. Controls with DMSO and without drugs were performed. Pentamidine was used as a standard drug. The plate was incubated for 24 hours at 24°C and the viability of promastigotes was verified by the MTT assay. Briefly, MTT (5 mg/mL) was dissolved in PBS, sterilized through 0.22 μm membrane and 20 μL/well was added, for 4 hours at 24°C. Promastigotes were incubated without compounds and used as a viability control. Formazan extraction was performed using 10% SDS for 18 hours (80 μL/well) at 24°C, and the optical density was determined in a Multiskan MS (UNISCIENCE) plate reader at 550 nm. The 100% viability was expressed based on the optical density of control promastigotes, after normalization. […] Plates were incubated at 37°C in a 5% CO2 humidified incubator for 24 hours. L. (L.) infantum amastigotes extracted from spleens and separated by differential centrifugation were added to macrophages at a ratio of 10 : 1 (amastigotes : macrophage). After 24 hours, extracellular parasites were removed by washing, fresh medium containing the drugs and controls was added, and the cells were incubated at 37°C for a period of 120 hours. Further medium changes with fresh drugs were carried out after 72 hours. At the end of the assay, the slides were stained with Giemsa and observed using light microscopy. Glucantime was used as a standard drug. The IC50 was determined by the number of infected macrophages in 400 cells.

[4] = test system: L. (L.) infantum intracellular amastigotes; test: Activity against intracellular amastigotes in peritoneal macrophages, Giemsa staining and light microscopy; type: cell-based, Leishmania (L.) infantum; conditions: for IC50 / IC50 ± SD, L. (L.) infantum amastigotes: intracellular amastigotes in BALB/c peritoneal macrophages, 120 hours; for IC50: read-out: IC50 ± SD, L. (L.) infantum amastigotes; for Selectivity Index (SI), L. (L.) infantum amastigotes: ratio between cytotoxicity to LLC-MK2 cells and antiparasitic activity
Description: as §1, §2

T. cruzi trypomastigotes = test: Antitrypanosomal activity, MTT assay; type: cell-based, Trypanosoma cruzi; conditions: for IC50 / IC50 ± SD, T. cruzi trypomastigotes: 24 hours at 37°C, highest concentration 100 μM; for IC50: read-out: IC50 ± SD, T. cruzi trypomastigotes; for Selectivity Index (SI), T. cruzi trypomastigotes: ratio between cytotoxicity to LLC-MK2 cells and antiparasitic activity
Description: as §1
To determine the IC50 against T. cruzi trypomastigotes, drugs were dissolved in DMSO and diluted with RPMI-1460 medium in 96-well microplates, with the highest concentration at 100 μM. Trypomastigotes obtained from LLC-MK2 cultures were counted in a Neubauer hemocytometer and seeded at 1 × 10^6 parasites/well in 96-well microplates. Test drugs were incubated for 24 hours at 37°C in a 5% CO2 humidified incubator and the viability of trypomastigotes was verified by the MTT assay as described above. Benznidazole was used as a standard drug.

[5] = Cytotoxicity in mammalian cells, MTT assay; type: cell-based; conditions: rhesus monkey, LLC-MK2 cells; 48 hours at 37°C; read-out: IC50 ± SD, LLC-MK2 cytotoxicity
Description: LLC-MK2 were seeded at 5 × 10^4 cells/well in 96-well microplates and incubated with drugs with 200 μM as the highest concentration, for 48 hours at 37°C in a 5% CO2 humidified incubator. The viability of the cells was determined by the MTT assay as described above. Control cells were incubated in the presence of DMSO and without drugs. Viability of 100% was expressed based on the optical density of control LLC-MK2 cells, after normalization. The Selectivity Index (SI) was given by the ratio between the cytotoxicity in LLC-MK2 cells and the antiparasitic activity.

[6] = test system: L. (V.) braziliensis promastigotes; test: Antileishmanial activity against promastigotes, MTT assay; type: cell-based, Leishmania (V.) braziliensis; conditions: 24 hours at 24°C, highest concentration 100 μM; for IC50: Leishmania, read-out: IC50 ± SD, L. (V.) braziliensis promastigotes
Description: as §1, §2

[7] = test system: L. (L.) infantum promastigotes; test: as above; type: cell-based, Leishmania (L.) infantum; conditions: 24 hours at 24°C, highest concentration 100 μM; for IC50: Leishmania infantum, read-out: IC50 ± SD, L. (L.) infantum promastigotes
Description: as §1, §2

L. (L.) major = test system: L. (L.) major; design: method as in PMID 9501844; conditions: read-out: IC50 against L. (L.) major; cited from earlier work
L. (L.) amazonensis = test system: L. (L.) amazonensis; design: method as in PMID 9501844; conditions: read-out: IC50 against L. (L.) amazonensis; cited from earlier work
[8] = test system: L. (L.) infantum promastigotes; conditions: not told
Description: L. (L.) infantum promastigotes were washed with PBS, deposited on a 96-well microplate (2 × 10^6 parasites/well) and incubated with SYTOX® Green (1 μM) for 15 minutes at 24°C [10]. Amlodipine and fendiline were added at 20 μM and the fluorescence was measured up to 60 minutes. The fluorescence intensity was determined using a fluorimetric microplate reader (FilterMax F5 Multi-Mode Microplate Reader-Molecular Devices) with excitation and emission wavelengths of 485 and 520 nm, respectively. Triton X-100 (0.1%) was used as positive control and untreated promastigotes were used as negative control.

T. cruzi epimastigotes = test system: T. cruzi epimastigotes; design: method as in PMID 9457486; conditions: in vitro; read-out: IC50 against T. cruzi epimastigotes; cited from earlier work
[9] = test system: Leishmania spp. promastigotes; test: Antileishmanial activity against promastigotes of all species tested, MTT assay; type: cell-based; conditions: range over the Leishmania species tested
Description: as §1
To determine the 50% inhibitory concentration (IC50) against Leishmania promastigotes, the drugs were dissolved in DMSO and diluted with M199 medium in 96-well microplates, with 100 μM as the highest concentration. Each drug was tested twice at eight concentrations prepared in twofold dilutions. Promastigotes were counted in a Neubauer hemocytometer and seeded at 1 × 10^6 parasites/well with a final volume of 150 μL. Controls with DMSO and without drugs were performed. Pentamidine was used as a standard drug. […]

[10] = Leishmania infantum, Peritoneal macrophage, in Mus musculus, 120 h

For `CC(=O)Oc1ccccc1C(=O)Nc1ncc([N+](=O)[O-])s1` [Nitazoxanide], the “effect on mitochondrial membrane potential (fluorescence intensity)” value ([1]; nitazoxanide 60 μg/mL, positive control) was “strong reduction of fluorescence intensity” and the “regulation of ROS content compared to untreated parasites” value ([2]; nitazoxanide 60 μg/mL) was “significant upregulation of ROS”.
Work on `Cc1cccc(C)c1NC(=O)CN1CCN(CCCC(c2ccc(F)cc2)c2ccc(F)cc2)CC1` [Lidoflazine, lidoflazine] yielded an IC50 [3] of 11.5 ± 1.49 µM, an IC50 [4, 10] of 12 to 16 µM and an IC50 [4] of 16.3 ± 4.45 µM. The “Selectivity Index (SI), L. (L.) infantum amastigotes” value [4] was 6.54, the IC50 (T. cruzi trypomastigotes; Trypanosoma cruzi, 24 h) was 10.4 ± 1.87 µM and the “Selectivity Index (SI), T. cruzi trypomastigotes” value (T. cruzi trypomastigotes) was 10.25. The IC50 at 48 h [5] was 107 ± 58 µM, the IC50 [6] was 14.5 ± 1.08 µM and the IC50 [7] was 17.7 ± 0.93 µM.
In the case of `Nc1ccncc1` [4-aminopyridine], the IC50 (L. (L.) major) is given as greater than 400 µM and the IC50 (L. (L.) amazonensis) is given as 46 µM.
For `COCC(=O)O[C@]1(CCN(C)CCCc2nc3ccccc3[nH]2)CCc2cc(F)ccc2[C@@H]1C(C)C` [Mibefradil, mibefradil], the IC50 [3] was 2.23 ± 0.42 µM, the “IC50 ± SD, L. (L.) infantum amastigotes” value [4] was “ne^b” and the “IC50 ± SD, L. (L.) infantum amastigotes” value ([4]; listed as mibefradil) was “lack of activity”. For the same compound, the IC50 (T. cruzi trypomastigotes; Trypanosoma cruzi, 24 h) was 2.99 ± 0.43 µM, the “Selectivity Index (SI), T. cruzi trypomastigotes” value (T. cruzi trypomastigotes) was 4.01 and the IC50 at 48 h [5] was 12 ± 1.03 µM. It also gave an IC50 [6] of 2.75 ± 0.39 µM and an IC50 [7] of 3.6 ± 0.11 µM.
For `CCOC(=O)C1=C(COCCN)NC(C)=C(C(=O)OC)C1c1ccccc1Cl` (stereo not drawn) [Amlodipine, amlodipine], the “reduction of MitoTracker Red fluorescence levels relative to untreated parasites” value [1] was 7%, the “plasma membrane permeability (SYTOX Green fluorescence)” value (“plasma membrane permeability” for short) [8] was “no interference on the plasma membrane permeability” and the “ROS levels, fold higher compared to fendiline” value ([2]; 20 μM) was roughly 3 fold. The “upregulation of ROS, fold higher than nitazoxanide” value ([2]; amlodipine 20 μM, nitazoxanide 60 μg/mL) was 1.99 fold and the “regulation of ROS content compared to untreated parasites” value ([2]; nitazoxanide 60 μg/mL) was “intense and significant (p < 0.05) upregulation of ROS content”.
With Triton X-100 the “plasma membrane permeability” value [8] was “fully permeabilized parasites”.
For `COC(=O)C1=C(C)NC(C)=C(C(=O)OC(C)C)C1c1cccc2nonc12` (stereo not drawn) [isradipine], the IC50 (T. cruzi epimastigotes) is listed as 20 µM.
In the case of `Nc1cc(-c2ccncc2)c[nH]c1=O` [Amrinone], the “IC50 ± SD, L. (L.) amazonensis promastigotes” value [3] is reported as “ne^b”, the “IC50 ± SD, L. (L.) infantum amastigotes” value [4] is reported as “ne^b” and the “IC50 ± SD, T. cruzi trypomastigotes” value (T. cruzi trypomastigotes) is reported as “ne^b”. The “IC50 ± SD, T. cruzi trypomastigotes” value (T. cruzi trypomastigotes; listed as amrinone) was “inactive”, the IC50 [9] was greater than 100 µM and the IC50 at 48 h [5] was greater than 500 µM. The “IC50 ± SD, L. (V.) braziliensis promastigotes” value [6] was “ne^b” and the “IC50 ± SD, L. (L.) infantum promastigotes” value [7] was “ne^b”.
For `CC(NCCC(c1ccccc1)c1ccccc1)c1ccccc1` (stereo not drawn) [Fendiline, fendiline], the IC50 [3] was 8.66 ± 1.27 µM, the “reduction of MitoTracker Red fluorescence levels relative to untreated parasites” value [1] was 18% and the IC50 [4, 10] was 12 to 16 µM. For the same compound, the IC50 [4] was 12.2 ± 1.74 µM, the “Selectivity Index (SI), L. (L.) infantum amastigotes” value [4] was 4.09 and the IC50 (T. cruzi trypomastigotes; Trypanosoma cruzi, 24 h) was 12.1 ± 2.97 µM. For the same compound, the “Selectivity Index (SI), T. cruzi trypomastigotes” value (T. cruzi trypomastigotes) was 4.11, the “plasma membrane permeability” value [8] was “no interference on the plasma membrane permeability” and the “regulation of ROS content compared to untreated parasites” value ([2]; nitazoxanide 60 μg/mL) was “intense and significant (p < 0.05) upregulation of ROS content”. It also gave an IC50 at 48 h [5] of 49.9 ± 8.16 µM, an IC50 [6] of 9.15 ± 0.78 µM and an IC50 [7] of 16.1 ± 4.2 µM.
Compound `N=C(N)c1ccc(OCCCCCOc2ccc(C(=N)N)cc2)cc1` [Pentamidine] has an IC50 [3] of 1.14 ± 0.15 µM, an IC50 [9] of 0.69 to 1.14 µM and an IC50 at 48 h [5] of 23.5 ± 3.53 µM. It also gave an IC50 [6] of 0.69 ± 0.04 µM and an IC50 [7] of 1.06 ± 0.12 µM.
With `O=C(Cn1ccnc1[N+](=O)[O-])NCc1ccccc1` [Benznidazole] the IC50 (T. cruzi trypomastigotes) was 440 ± 39.1 µM, the IC50 (T. cruzi trypomastigotes; Trypanosoma cruzi, 24 h) was 440 µM and the IC50 at 48 h [5] was greater than 500 µM.
In the case of `CCOC(=O)C1=C(C)NC(C)=C(C(=O)OCC)C1c1ccccc1/C=C/C(=O)OC(C)(C)C` [lacidipine], the IC50 (T. cruzi epimastigotes) is listed as 33 µM.
